Source: ChEMBL document CHEMBL2177022, “Novel acidic 11β-hydroxysteroid dehydrogenase type 1 (11β-HSD1) inhibitor with reduced acyl glucuronide liability: the discovery of 4-[4-(2-adamantylcarbamoyl)-5-tert-butyl-pyrazol-1-yl]benzoic acid (AZD8329)” (J Med Chem, 2012)
The source made the active and inactive calls. The rule behind the calls is not given here.

Assays:
[1] = test system: Rattus norvegicus; test: Inhibition of 11betaHSD1 in lean Han Wistar rat adipose tissue assessed as reduction in assessed as [3H]cortisone to [3H]cortisol conversion at 10 mg/kg, po measured 3 hrs post dose; assay type: functional, organism-based; set-up: dose 10 mg/kg
[2] = test system: Rattus norvegicus; test: Inhibition of 11betaHSD1 in lean Han Wistar rat liver assessed as reduction in assessed as [3H]cortisone to [3H]cortisol conversion at 3 mg/kg, po measured 3 hrs post dose; assay type: functional
[3] = molecular target: T1, 11-beta-hydroxysteroid dehydrogenase 1 (Homo sapiens, UniProt P28845); test: Inhibition of 11betaHSD1 in human adipocytes assessed as cortisone to cortisol conversion by scintillation counting method; assay type: cell-based
T1 sequence (P28845 whole entry): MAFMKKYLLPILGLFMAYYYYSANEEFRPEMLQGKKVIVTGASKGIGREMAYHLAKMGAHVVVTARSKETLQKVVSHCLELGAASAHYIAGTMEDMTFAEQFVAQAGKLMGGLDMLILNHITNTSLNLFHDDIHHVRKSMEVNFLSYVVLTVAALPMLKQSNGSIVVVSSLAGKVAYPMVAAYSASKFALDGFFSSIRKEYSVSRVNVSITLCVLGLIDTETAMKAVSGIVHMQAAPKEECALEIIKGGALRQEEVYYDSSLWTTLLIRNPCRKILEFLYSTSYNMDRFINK

[4] = Inhibition of N-terminal 6-His tagged full length cynomolgus monkey 11betaHSD1 incubated for 25 mins by HTRF assay; set-up: species or system Macaca fascicularis
[5] = Inhibition of N-terminal 6-His tagged full length dog 11betaHSD1 incubated for 25 mins by HTRF assay; set-up: species or system Canis lupus familiaris
[6] = molecular target: 11-beta-hydroxysteroid dehydrogenase 1 (Rattus norvegicus, UniProt P16232); test: Inhibition of N-terminal 6-His tagged full length rat 11betaHSD1 incubated for 25 mins by HTRF assay
11-beta-hydroxysteroid dehydrogenase 1 (Rattus norvegicus, UniProt P16232), sequence (P16232 whole entry): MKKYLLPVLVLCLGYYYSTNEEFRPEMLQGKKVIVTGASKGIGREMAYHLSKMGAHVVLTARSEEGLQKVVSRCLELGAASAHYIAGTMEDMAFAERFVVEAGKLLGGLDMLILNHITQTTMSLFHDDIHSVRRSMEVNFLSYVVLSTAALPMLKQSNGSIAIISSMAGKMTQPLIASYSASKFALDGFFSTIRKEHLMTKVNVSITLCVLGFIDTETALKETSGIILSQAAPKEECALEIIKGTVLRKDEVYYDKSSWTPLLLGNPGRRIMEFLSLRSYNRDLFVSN

[7] = molecular target: 11-beta-hydroxysteroid dehydrogenase 1 (Mus musculus, UniProt P50172); test: Inhibition of N-terminal 6-His tagged full length mouse 11betaHSD1 incubated for 25 mins by HTRF assay
11-beta-hydroxysteroid dehydrogenase 1 (Mus musculus, UniProt P50172), sequence (P50172 whole entry): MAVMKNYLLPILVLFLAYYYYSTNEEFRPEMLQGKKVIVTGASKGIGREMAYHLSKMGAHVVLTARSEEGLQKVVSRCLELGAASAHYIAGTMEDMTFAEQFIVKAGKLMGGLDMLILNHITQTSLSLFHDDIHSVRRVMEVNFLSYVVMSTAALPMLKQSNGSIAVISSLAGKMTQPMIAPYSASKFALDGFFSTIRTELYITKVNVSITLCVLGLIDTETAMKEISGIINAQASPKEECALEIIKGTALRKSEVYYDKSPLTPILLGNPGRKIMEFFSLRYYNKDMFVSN

[8] = test system: Cavia porcellus; test: Toxicity in anesthetized guinea pig monophasic action potential model assessed as ventricular repolarization; assay type: organism-based, Cardiac ventricle; settings: in vivo
[9] = test system: L5178Y; test: Genotoxicity in mouse L5178Y cells; assay type: toxicity, cell-based
[10] = molecular target: Mineralocorticoid receptor (Homo sapiens) (UniProt P08235); test: Inhibition of mineralocorticoid receptor
Mineralocorticoid receptor (Homo sapiens), sequence (P08235 whole entry): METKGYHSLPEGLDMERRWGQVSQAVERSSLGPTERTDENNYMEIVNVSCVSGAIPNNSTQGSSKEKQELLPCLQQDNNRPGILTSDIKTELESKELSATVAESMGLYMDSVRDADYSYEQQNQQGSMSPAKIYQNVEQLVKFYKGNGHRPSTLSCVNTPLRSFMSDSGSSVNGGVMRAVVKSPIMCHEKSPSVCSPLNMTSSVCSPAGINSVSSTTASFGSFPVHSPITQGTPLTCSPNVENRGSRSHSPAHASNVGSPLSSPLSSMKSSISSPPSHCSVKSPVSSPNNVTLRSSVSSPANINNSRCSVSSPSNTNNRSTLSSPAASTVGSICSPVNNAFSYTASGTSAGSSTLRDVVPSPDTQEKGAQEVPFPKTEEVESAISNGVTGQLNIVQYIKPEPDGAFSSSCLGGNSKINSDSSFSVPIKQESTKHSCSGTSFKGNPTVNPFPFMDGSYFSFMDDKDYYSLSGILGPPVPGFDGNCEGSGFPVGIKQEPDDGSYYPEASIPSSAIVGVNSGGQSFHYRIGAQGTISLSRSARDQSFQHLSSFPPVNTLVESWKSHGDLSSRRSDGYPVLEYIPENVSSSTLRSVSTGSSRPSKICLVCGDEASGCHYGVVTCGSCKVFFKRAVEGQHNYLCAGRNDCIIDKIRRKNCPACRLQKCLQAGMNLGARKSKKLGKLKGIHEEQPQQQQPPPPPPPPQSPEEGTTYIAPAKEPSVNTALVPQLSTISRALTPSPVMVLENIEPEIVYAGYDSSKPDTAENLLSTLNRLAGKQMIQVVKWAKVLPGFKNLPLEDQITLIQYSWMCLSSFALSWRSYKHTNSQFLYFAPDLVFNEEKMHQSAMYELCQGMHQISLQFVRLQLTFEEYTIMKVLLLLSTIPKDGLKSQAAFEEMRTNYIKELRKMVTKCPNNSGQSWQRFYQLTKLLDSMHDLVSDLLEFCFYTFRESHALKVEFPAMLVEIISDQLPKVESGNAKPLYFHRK

[11] = test system: Salmonella typhimurium; test: Genotoxicity in Salmonella typhimurium by Ames test; assay type: toxicity, organism-based; settings: salmonella enterica subsp. enterica serovar typhimurium
[12] = molecular target: Glucocorticoid receptor (Homo sapiens) (UniProt P04150); test: Inhibition of glucocorticoid receptor
Glucocorticoid receptor (Homo sapiens), sequence (P04150 whole entry): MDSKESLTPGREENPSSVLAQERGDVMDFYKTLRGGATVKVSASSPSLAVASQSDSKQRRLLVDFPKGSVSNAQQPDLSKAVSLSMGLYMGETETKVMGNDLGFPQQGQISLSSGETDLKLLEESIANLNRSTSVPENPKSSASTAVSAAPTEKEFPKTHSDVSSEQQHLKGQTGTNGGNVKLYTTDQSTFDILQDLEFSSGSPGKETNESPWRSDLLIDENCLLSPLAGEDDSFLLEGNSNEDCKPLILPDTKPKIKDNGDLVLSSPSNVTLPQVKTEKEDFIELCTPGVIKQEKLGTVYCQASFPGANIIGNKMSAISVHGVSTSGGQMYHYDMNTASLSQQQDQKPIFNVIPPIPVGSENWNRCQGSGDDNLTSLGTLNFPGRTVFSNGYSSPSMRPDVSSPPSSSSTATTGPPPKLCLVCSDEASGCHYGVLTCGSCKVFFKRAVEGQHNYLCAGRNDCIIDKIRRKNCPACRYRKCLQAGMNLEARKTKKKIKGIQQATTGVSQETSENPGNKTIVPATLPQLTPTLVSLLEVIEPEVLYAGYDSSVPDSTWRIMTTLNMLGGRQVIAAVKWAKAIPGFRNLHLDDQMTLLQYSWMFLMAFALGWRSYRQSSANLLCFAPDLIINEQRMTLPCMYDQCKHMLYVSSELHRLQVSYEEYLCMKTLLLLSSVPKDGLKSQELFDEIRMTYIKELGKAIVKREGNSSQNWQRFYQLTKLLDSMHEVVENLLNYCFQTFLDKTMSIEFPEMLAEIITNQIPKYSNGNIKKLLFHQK

[13] = molecular target: 17-beta-hydroxysteroid dehydrogenase type 3 (Homo sapiens) (UniProt P37058); test: Inhibition of 17beta-HSD3 assessed as conversion of androstenedione to testosterone at 10 uM by scintillation counting method
17-beta-hydroxysteroid dehydrogenase type 3 (Homo sapiens), sequence (P37058 whole entry): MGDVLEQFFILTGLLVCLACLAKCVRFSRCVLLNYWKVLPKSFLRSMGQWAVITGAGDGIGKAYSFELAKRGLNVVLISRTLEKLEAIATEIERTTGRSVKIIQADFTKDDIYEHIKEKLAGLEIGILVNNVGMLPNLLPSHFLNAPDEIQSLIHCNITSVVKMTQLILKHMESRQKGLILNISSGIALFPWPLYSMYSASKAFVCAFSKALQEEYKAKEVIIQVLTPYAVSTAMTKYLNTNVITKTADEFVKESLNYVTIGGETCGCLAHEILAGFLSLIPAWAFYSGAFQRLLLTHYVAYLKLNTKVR

[14] = molecular target: 17-beta-hydroxysteroid dehydrogenase type 1 (Homo sapiens, UniProt P14061); test: Inhibition of 17beta-HSD1 assessed as conversion of estrone to estradiol by scintillation counting method
17-beta-hydroxysteroid dehydrogenase type 1, sequence (P14061 whole entry): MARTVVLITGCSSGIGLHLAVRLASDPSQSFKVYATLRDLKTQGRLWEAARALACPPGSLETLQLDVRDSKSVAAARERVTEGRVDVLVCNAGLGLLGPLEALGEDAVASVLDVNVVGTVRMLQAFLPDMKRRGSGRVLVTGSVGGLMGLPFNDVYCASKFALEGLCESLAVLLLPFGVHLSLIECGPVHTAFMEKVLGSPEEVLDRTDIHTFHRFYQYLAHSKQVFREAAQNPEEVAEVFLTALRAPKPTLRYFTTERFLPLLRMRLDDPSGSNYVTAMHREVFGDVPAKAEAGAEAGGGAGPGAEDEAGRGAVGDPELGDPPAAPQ

[15] = molecular target: 11-beta-hydroxysteroid dehydrogenase type 2 (Homo sapiens, UniProt P80365); test: Inhibition of 11beta-HSD2 assessed as conversion of cortisol to cortisone by fluorescence based assay
[16] = Drug metabolism in bile duct cannulated rat urine assessed as oxidative metabolism level during 0 to 6 hrs post dose by metabolism-ID study; assay type: ADME, tissue-based; settings: in vivo
[17] = Drug metabolism in bile duct cannulated rat bile assessed as oxidative metabolism level during 0 to 6 hrs post dose by metabolism-ID study; assay type: ADME; settings: in vivo
[18] = Stability in bile duct cannulated rat urine assessed as parent compound remaining measured during 0 to 6 hrs post dose; assay type: ADME, tissue-based; settings: in vivo
[19] = Stability in bile duct cannulated rat bile assessed as parent compound remaining measured during 0 to 6 hrs post dose; assay type: ADME; settings: in vivo
[20] = Drug metabolism in dog hepatocytes assessed as oxidative metabolism level by metabolism-ID study; assay type: ADME, cell-based, Canis lupus familiaris, Hepatocyte
[21] = test system: Hepatocyte; test: Stability in rat hepatocytes assessed as parent compound remaining; assay type: ADME, cell-based
[22] = Stability in dog hepatocytes assessed as parent compound remaining; assay type: ADME, cell-based, Canis lupus familiaris, Hepatocyte
[23] = test system: Hepatocyte; test: Stability in human hepatocytes assessed as parent compound remaining; assay type: ADME, cell-based
[24] = test system: Liver microsomes; test: Stability in human liver microsomes assessed as oxidative metabolism-mediated generation of reactive metabolites; assay type: ADME, Microsome
[25] = test system: Rattus norvegicus; test: Renal clearance in rat at 1 and 3 mg/kg relative to total clearance; assay type: ADME, organism-based, Kidney; set-up: dose 3 mg/kg; settings: in vivo
[26] = test system: Canis familiaris; test: Renal clearance in dog at 1 and 3 mg/kg relative to total clearance; assay type: ADME, organism-based, Canis lupus familiaris, Kidney; set-up: dose 3 mg/kg; settings: in vivo
[27] = Oral bioavailability in rat at 1 and 3 mg/kg; assay type: ADME, organism-based; settings: in vivo
[28] = Oral bioavailability in dog at 1 and 3 mg/kg; assay type: ADME, organism-based, Canis lupus familiaris; settings: in vivo
[29] = Oral bioavailability in mouse at 1 and 3 mg/kg; assay type: ADME, organism-based; settings: in vivo
[30] = Half life in mouse at 1 and 3 mg/kg, po; assay type: ADME, organism-based; set-up: dose 3 mg/kg, route oral; settings: in vivo
[31] = Half life in rat at 1 and 3 mg/kg, po; assay type: ADME, organism-based; set-up: dose 3 mg/kg, route oral; settings: in vivo
[32] = Half life in dog at 1 and 3 mg/kg, po; assay type: ADME, organism-based, Canis lupus familiaris; set-up: dose 3 mg/kg, route oral; settings: in vivo
[33] = Half life in rat at 1 and 3 mg/kg, iv; assay type: ADME, organism-based; set-up: dose 3 mg/kg, route intravenous; settings: in vivo
[34] = Half life in dog at 1 and 3 mg/kg, iv; assay type: ADME, organism-based, Canis lupus familiaris; set-up: dose 3 mg/kg, route intravenous; settings: in vivo
[35] = Volume of distribution at steady state in dog at 1 and 3 mg/kg; assay type: ADME, organism-based, Canis lupus familiaris; set-up: dose 3 mg/kg; settings: in vivo, read-out: Vdss
[36] = Half life in mouse at 1 and 3 mg/kg, iv; assay type: ADME, organism-based; set-up: dose 3 mg/kg, route intravenous; settings: in vivo
[37] = Volume of distribution at steady state in rat at 1 and 3 mg/kg; assay type: ADME, organism-based; set-up: dose 3 mg/kg; settings: in vivo, read-out: Vdss
[38] = Volume of distribution at steady state in mouse at 1 and 3 mg/kg; assay type: ADME, organism-based; set-up: dose 3 mg/kg; settings: in vivo, read-out: Vdss
[39] = Plasma clearance in dog at 1 and 3 mg/kg; assay type: ADME, organism-based, Canis lupus familiaris; set-up: dose 3 mg/kg
[40] = Plasma clearance in mouse at 1 and 3 mg/kg; assay type: ADME, organism-based; set-up: dose 3 mg/kg
[41] = Plasma clearance in rat at 1 and 3 mg/kg; assay type: ADME, organism-based; set-up: dose 3 mg/kg
[42] = Apparent permeability from basolateral to apical side in MDCK cells at 10 uM; assay type: ADME, cell-based, Canis lupus familiaris; settings: dog
[43] = Percentage unbound in human plasma at 37 degC by equilibrium dialysis method; assay type: ADME, cell-free
[44] = Apparent permeability from apical to basolateral side in MDCK cells at 10 uM; assay type: ADME, cell-based, Canis lupus familiaris; settings: dog
[45] = Percentage unbound in mouse plasma at 37 degC by equilibrium dialysis method; assay type: ADME, cell-free
[46] = Percentage unbound in dog plasma at 37 degC by equilibrium dialysis method; assay type: ADME, cell-free, Canis lupus familiaris
[47] = molecular target: CYP2C9 (Homo sapiens, UniProt P11712); test: Inhibition of CYP2C9 at 10 uM; assay type: ADME
CYP2C9, sequence (P11712 whole entry): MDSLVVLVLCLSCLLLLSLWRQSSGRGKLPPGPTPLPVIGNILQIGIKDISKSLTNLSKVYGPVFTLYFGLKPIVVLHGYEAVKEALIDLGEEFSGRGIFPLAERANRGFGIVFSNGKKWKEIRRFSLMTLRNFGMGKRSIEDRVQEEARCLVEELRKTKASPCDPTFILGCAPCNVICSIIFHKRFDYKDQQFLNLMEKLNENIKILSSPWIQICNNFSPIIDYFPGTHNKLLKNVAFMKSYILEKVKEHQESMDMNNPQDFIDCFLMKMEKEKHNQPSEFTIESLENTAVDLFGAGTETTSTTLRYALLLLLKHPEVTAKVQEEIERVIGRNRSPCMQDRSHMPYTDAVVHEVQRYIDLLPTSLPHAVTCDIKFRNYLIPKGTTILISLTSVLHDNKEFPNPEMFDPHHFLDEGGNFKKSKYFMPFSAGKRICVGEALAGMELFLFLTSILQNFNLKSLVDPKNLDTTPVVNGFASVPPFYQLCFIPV

[48] = molecular target: CYP2C19 (Homo sapiens, UniProt P33261); test: Inhibition of CYP2C19 at 10 uM; assay type: ADME
[49] = molecular target: CYP2D6 (Homo sapiens, UniProt P10635); test: Inhibition of CYP2D6 at 10 uM; assay type: ADME
CYP2D6, sequence (P10635 whole entry): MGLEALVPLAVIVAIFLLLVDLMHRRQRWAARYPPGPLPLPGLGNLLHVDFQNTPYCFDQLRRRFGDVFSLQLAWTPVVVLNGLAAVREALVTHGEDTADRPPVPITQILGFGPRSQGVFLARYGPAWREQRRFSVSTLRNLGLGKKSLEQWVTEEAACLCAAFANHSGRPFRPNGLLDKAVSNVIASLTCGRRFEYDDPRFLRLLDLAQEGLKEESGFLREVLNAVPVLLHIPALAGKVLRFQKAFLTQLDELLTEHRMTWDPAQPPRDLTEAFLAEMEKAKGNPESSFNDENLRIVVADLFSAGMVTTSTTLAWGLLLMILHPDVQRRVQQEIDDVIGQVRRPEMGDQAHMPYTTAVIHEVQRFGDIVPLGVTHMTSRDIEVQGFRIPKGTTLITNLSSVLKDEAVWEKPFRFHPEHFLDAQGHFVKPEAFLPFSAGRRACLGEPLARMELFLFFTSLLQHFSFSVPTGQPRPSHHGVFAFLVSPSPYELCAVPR

[50] = molecular target: CYP1A2 (Homo sapiens, UniProt P05177); test: Inhibition of CYP1A2 at 10 uM; assay type: ADME
CYP1A2, sequence (P05177 whole entry): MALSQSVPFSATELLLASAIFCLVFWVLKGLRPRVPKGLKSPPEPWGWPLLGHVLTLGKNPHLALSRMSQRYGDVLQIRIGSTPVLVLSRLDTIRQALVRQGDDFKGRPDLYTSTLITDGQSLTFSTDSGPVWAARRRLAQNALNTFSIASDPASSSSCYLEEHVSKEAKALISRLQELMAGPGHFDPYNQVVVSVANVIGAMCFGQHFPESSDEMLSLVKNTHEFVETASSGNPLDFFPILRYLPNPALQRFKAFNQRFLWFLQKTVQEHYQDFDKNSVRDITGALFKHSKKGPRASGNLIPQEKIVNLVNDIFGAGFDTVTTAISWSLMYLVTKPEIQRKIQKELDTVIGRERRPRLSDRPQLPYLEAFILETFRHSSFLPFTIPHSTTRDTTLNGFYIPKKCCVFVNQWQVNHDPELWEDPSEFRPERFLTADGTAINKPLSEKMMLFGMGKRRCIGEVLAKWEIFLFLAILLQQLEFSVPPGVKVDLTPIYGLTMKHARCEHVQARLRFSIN

[51] = Oral bioavailability in rat; assay type: ADME, organism-based; settings: in vivo
[52] = molecular target: CYP3A4 (Homo sapiens, UniProt P08684); test: Inhibition of CYP3A4 at 10 uM; assay type: ADME
[53] = Aqueous solubility in pH 7.4 phosphate buffer at 25 degC incubated for 24 hrs; assay type: physicochemical
[54] = Intrinsic clearance in rat hepatocytes assessed per 10^6 cells
[55] = Percentage unbound in rat plasma at 37 degC by equilibrium dialysis method; assay type: ADME, cell-free
[56] = Lipophilicity, log D at pH 7.4 by shake flask method; settings: buffer
[57] = molecular target: T1, 11-beta-hydroxysteroid dehydrogenase 1
Description: Inhibition of N-terminal 6-His tagged full length human 11betaHSD1 incubated for 25 mins by HTRF assay

[58] = in vivo; settings: rat

For `CC(C)(C)c1c(C(=O)NC2C3CC4CC(C3)CC2C4)cnn1-c1ccc(C(=O)O)cc1` (stereo not drawn), which inhibition [1] is on record?
The inhibition was “Active”.

What about the inhibition in vivo at 3 mg/kg [2] of the same molecule?
Its inhibition in vivo at 3 mg/kg is 50%.

And the IC50 [3]?
The IC50 was 2 nM.

What about the IC50 [4] of the same molecule?
Its IC50 is 24 nM.

And the IC50 [5]?
The IC50 was 8 nM.

What about the IC50 [6] of the same molecule?
The IC50 was 86 nM.

What about the IC50 [7] of the same molecule?
Its IC50 is 6.1 µM.

And the Activity [8]?
Its Activity is “Non-toxic”.

What about the Activity [9] of the same molecule?
The Activity was “Non-toxic”.

And the inhibition [10]?
Its inhibition is “inactive”.

What about the Activity [11] of the same molecule?
Its Activity is “Non-toxic”.

And the inhibition [12]?
Its inhibition is “inactive”.

And the inhibition [13]?
The inhibition was < 5%.

What about the IC50 [14] of the same molecule?
The IC50 was > 30 µM.

And the IC50 [15]?
Its IC50 is > 30 µM.

What about the Drug metabolism [16] of the same molecule?
Its Drug metabolism is 0.2%.

What about the Drug metabolism [17] of the same molecule?
The Drug metabolism was 80.1%.

What about the Stability [18] of the same molecule?
Its Stability is 99.4%.

What about the Stability [19] of the same molecule?
Its Stability is 10.8%.

And the Drug metabolism [20]?
The Drug metabolism was 5.8%.

What about the Stability [21] of the same molecule?
Its Stability is 96%.

And the Stability [22]?
Its Stability is 93.7%.

What about the Stability [23] of the same molecule?
The Stability was 95%.

And the Stability [24]?
The Stability was “Stable”.

And the CL [25]?
The CL was < 1%.

What about the CL [26] of the same molecule?
Its CL is < 5%.

What about the bioavailability [27] of the same molecule?
Its bioavailability is 95%.

And the bioavailability [28]?
The bioavailability was 45%.

And the bioavailability [29]?
The bioavailability was 100%.

And the half-life [30]?
Its half-life is 132 min.

And the half-life [31]?
Its half-life is 294 min.

And the half-life [32]?
Its half-life is 306 min.

And the half-life [33]?
Its half-life is 348 min.

What about the half-life [34] of the same molecule?
The half-life was 330 min.

What about the Vd [35] of the same molecule?
The Vd was 0.1 L/kg.

What about the half-life [36] of the same molecule?
Its half-life is 48 min.

And the Vd [37]?
The Vd was 0.3 L/kg.

What about the Vd [38] of the same molecule?
Its Vd is 0.4 L/kg.

What about the clearance [39] of the same molecule?
The clearance was 0.3 mL/min/kg.

What about the clearance [40] of the same molecule?
Its clearance is 9 mL/min/kg.

What about the clearance [41] of the same molecule?
The clearance was 0.6 mL/min/kg.

What about the Papp B→A at 10 µM [42] of the same molecule?
Its Papp B→A at 10 µM is 3.9 ×10⁻⁶ cm/s.

And the fraction unbound [43]?
Its fraction unbound is 0.014.

What about the Papp A→B at 10 µM [44] of the same molecule?
The Papp A→B at 10 µM was 7.3 ×10⁻⁶ cm/s.

And the fraction unbound [45]?
Its fraction unbound is 0.035.

And the fraction unbound [46]?
Its fraction unbound is 0.02.

And the inhibition at 10 µM [47]?
Its inhibition at 10 µM is < 25%.

And the inhibition at 10 µM [48]?
Its inhibition at 10 µM is < 25%.

And the inhibition at 10 µM [49]?
Its inhibition at 10 µM is < 25%.

What about the inhibition at 10 µM [50] of the same molecule?
Its inhibition at 10 µM is < 25%.

What about the bioavailability [51] of the same molecule?
Its bioavailability is 95%.

And the inhibition at 10 µM [52]?
The inhibition at 10 µM was < 25%.

And the solubility at 24 h [53]?
The solubility at 24 h was > 1900 µM.

And the hepatocyte CLint [54]?
The hepatocyte CLint was < 2 µL/min/1e6 cells.

And the fraction unbound [55]?
Its fraction unbound is 0.013.

What about the logD [56] of the same molecule?
Its logD is 1.

What about the IC50 [57] of the same molecule?
The IC50 was 9 nM.

And the clearance [58]?
The clearance was 0.6 mL/min/kg.
